Reference: US4925979A, “Flavone carboxylic acid derivatives” (Shionogi & Co., Ltd., priority 1986, dated 1990)
Like-named read-outs stand apart in the source and are kept apart here. Each block holds one compound with its values, some of them ahead of it.

Experiments:
[1] = as seen from the therapeutic index; cited from earlier work
[2] = tested on: human acute promyelocytic leukemia cells HL 60; experiment: Differentiation of HL-60 cells: NBT reduction (counting formazan-containing cells), ED50; type: cell-based; settings: for activity (in words): HL-60 differentiation, Table 1; for EC50: Homo sapiens, read-out: ED50 (effective dose which causes differentiation of 50% of the cultured cells)
Description: The test of the activities of the compounds of this invention has been conducted by measuring the concentration required for inducing the differentiation of human acute promyelocytic leukemia cells HL 60, according to the methods described in detail hereinafter.
(§1) The HL-60 cell are cultured in plastic flasks in RPMI 1640 medium supplemented with 5% heat inactivated fetal calf serum and antibiotics (penicillin G and streptomycin). The cells (3×10^4 /ml) are cultured with a compound of the present invention for 4 days. The cells are fixed and stained with Wright-Giemsa to examine the morphological changes of the nuclei.
The biochemical activity of cells treated with the compound is measured as follows:
The cells after 5 days incubation are centrifuged and diluted with RPMI 1640 medium, supplemented with 5% fetal calf serum to provide a definite number of the cells. To the diluted cell suspension are then added 200 ng/ml of 12-o-tetradodecanoylphorbol-13 -acetate (TPA) and the resulting culture medium is then incubated for 20 minutes at 37° C. in the presence of 0.1% of NBT. Thus, the mature differentiated cells containing blue-black formazan is counted by microscopy, so that the ratio of the cells having the ability to reduce NBT, to total cells, can be calculated.
(§2) The biological test was performed according to the method previously described, using the leukemia cells HL 60. The morphological changes were observed under a light microscope. Biochemical activity reducing nitro-blue tetrazolium is assayed by counting the number of cells which contain formazan. The specific activity, ED50 (the concentration which causes the differentiation of 50% of the total cells, represented by M), was calculated and shown in the Table. As a positive control for comparison, all trans retinoic acid was used.

[3] = tested on: chemically-induced papillomas of the skin of mice; settings: minute quantities; cited from earlier work
[4] = tested on: chemically-induced skin carcinomas in mice; settings: cited from earlier work
[5] = tested on: human acute promyelocytic leukemia cells (HL-60); experiment: Differentiation of HL-60 cells: morphological changes of nuclei (Wright-Giemsa); type: cell-based; settings: HL-60, 4 days culture
Description: as §1, §2

Compound: CCOC(=O)c1ccc(/C=C(\C)c2ccc3c(c2)C(C)(C)CCC3(C)C)cc1 [Artinoid]
activity relative to Retinoic acid [1]: ten times as strong

Compound: CC1(C)CCC(C)(C)c2cc3c(=O)cc(-c4ccc(C(=O)O)cc4)oc3cc21 [No. 5, 4-(6,7,8,9-tetrahydro-6,6,9,9,-tetramethyl-4H-4-oxo-naphtho[2,3-b]pyran-2-yl) benzoic acid]
activity (in words) [2]: one of the strongest compounds

Compound: CC1(C)CCC(C)(C)c2cc(C(=O)C=C(O)c3ccc(C(=O)O)cc3)c(O)cc21 [No. 8, 4-[1-hydroxy-3-(3-hydroxy-5,6,7,8-tetrahydro-5,5,8,8-tetra-methyl-2-naphthalenyl)-3-oxo-1-propenyl] benzoic acid]
activity (in words) [2]: most active compound

Compound: CCOC(=O)c1ccc(/C=C(\C)c2ccc3c(c2)C(C)(C)CCC3(C)C)cc1 [Ro 13 6298]
regression of papillomas [3]: regression
therapeutic influence on skin carcinomas [4]: therapeutic influence

Compound: O=C(O)c1ccc(-c2cc(=O)c3ccccc3o2)cc1 [compound 1]
ED50 (effective dose which causes differentiation of 50% of the cultured cells) ([2]; HL-60 cells): inactive (10^-5)

EC50 ([2]; 96 h, HL-60 cells): 210 nM
Compound: CC(C)(C)c1ccc2c(=O)cc(-c3ccc(C(=O)O)cc3)oc2c1 [compound 2]

EC50 ([2]; 96 h, HL-60 cells): 0.51 nM
Compound: COC(=O)c1ccc(-c2cc(=O)c3cc4c(cc3o2)C(C)(C)CCC4(C)C)cc1 [compound 4]

EC50 ([2]; 96 h, HL-60 cells): 0.063 nM
Compound: CC1(C)CCC(C)(C)c2cc3c(=O)cc(-c4ccc(C(=O)O)cc4)oc3cc21 [compound 5]

EC50 ([2]; 96 h, HL-60 cells): 1.2 nM
Compound: CC1(C)CCC(C)(C)c2cc3c(=O)c(O)c(-c4ccc(C(=O)O)cc4)oc3cc21 [compound 6]

Compound: CC1(C)CCC(C)(C)c2cc(C(=O)C=Cc3ccc(C(=O)O)cc3)c(O)cc21 [compound 7]
EC50 ([2]; 96 h, HL-60 cells): 0.1 nM

Compound: CC1(C)CCC(C)(C)c2cc(C(=O)C=C(O)c3ccc(C(=O)O)cc3)c(O)cc21 [compound 8]
EC50 ([2]; 96 h, HL-60 cells): 0.091 nM

EC50 ([2]; 96 h, HL-60 cells): 930 nM
Compound: CC(C)(C)c1ccc(C(=O)C=C(O)c2ccc(C(=O)O)cc2)c(O)c1 [compound 9]

Compound: CC1=C(/C=C/C(C)=C/C=C/C(C)=C/C(=O)O)C(C)(C)CCC1 [retinoic acid, all trans retinoic acid, reference compound]
EC50 ([2]; HL-60, 96 h): 4.1 nM
differentiation to mature granulocytes [5]: differentiated to mature granulocytes
